According to the kinase profiling compilation of Christmann-Franck et al. (2016):

How the values were obtained:
Test in all cases: KINOMEscan competition binding
Details in all cases: compound 0.5 µM
ACVRL1 (human) = ACVRL1 (human) (UniProt P37023)
ADCK3 (human) = ADCK3 (human) (UniProt Q8NI60)
AKT2 (human) = AKT2 (human) (UniProt P31751)
BMX (human) = BMX (human) (UniProt P51813)
BTK (human) = BTK (human) (UniProt Q06187)
CASK (human) = CASK (human) (UniProt O14936)
CDK13 (human) = CDK13 (human) (UniProt Q14004)
CDKL2 (human) = CDKL2 (human) (UniProt Q92772)
CDKL5 (human) = CDKL5 (human) (UniProt O76039)
CRK2 (P.falciparum) = CRK2 (P.falciparum) (UniProt P61075)
CSK (human) = CSK (human) (UniProt P41240)
DCLK1 (human) = DCLK1 (human) (UniProt O15075)
DCLK3 (human) = DCLK3 (human) (UniProt Q9C098)
[1] = system: FLT3 (human), P36888 [D835Y]
HIPK2 (human) = HIPK2 (human) (UniProt Q9H2X6)
HIPK4 (human) = HIPK4 (human) (UniProt Q8NE63)
IKBKE (human) = IKBKE (human) (UniProt Q14164)
ITK (human) = ITK (human) (UniProt Q08881)
[2] = molecular target: JAK3 JH1 catalytic (human) (UniProt P52333)
MAP3K15 (human) = MAP3K15 (human) (UniProt Q6ZN16)
MARK4 (human) = MARK4 (human) (UniProt Q96L34)
[3] = system: MET (human), P08581 [M1250T]
[4] = system: MET (human), P08581 [Y1235D]
MST4 (human) = MST4 (human) (UniProt Q9P289)
NEK3 (human) = NEK3 (human) (UniProt P51956)
NUAK2 (human) = NUAK2 (human) (UniProt Q9H093)
PAK7 (human) = PAK7 (human) (UniProt Q9P286)
PHKG1 (human) = PHKG1 (human) (UniProt Q16816)
PIM3 (human) = PIM3 (human) (UniProt Q86V86)
PKMYT1 (human) = PKMYT1 (human) (UniProt Q99640)
PLK1 (human) = PLK1 (human) (UniProt P53350)
PRKAA1 (human) = PRKAA1 (human) (UniProt Q13131)
PRKX (human) = PRKX (human) (UniProt P51817)
[5] = system: RET (human), P07949 [V804M]
ROCK1 (human) = ROCK1 (human) (UniProt Q13464)
ROCK2 (human) = ROCK2 (human) (UniProt O75116)
RPS6KA1 KD2 (human) = RPS6KA1 KD2 (human) (UniProt Q15418)
RPS6KA3 KD1 (human) = RPS6KA3 KD1 (human) (UniProt P51812)
STK3 (human) = STK3 (human) (UniProt Q13188)
TIE1 (human) = TIE1 (human) (UniProt P35590)
TTK (human) = TTK (human) (UniProt P33981)
[6] = molecular target: TYK2 JH1 catalytic (human) (UniProt P29597)

Sequence of MARK4 (human) (Q96L34 whole entry, looked up): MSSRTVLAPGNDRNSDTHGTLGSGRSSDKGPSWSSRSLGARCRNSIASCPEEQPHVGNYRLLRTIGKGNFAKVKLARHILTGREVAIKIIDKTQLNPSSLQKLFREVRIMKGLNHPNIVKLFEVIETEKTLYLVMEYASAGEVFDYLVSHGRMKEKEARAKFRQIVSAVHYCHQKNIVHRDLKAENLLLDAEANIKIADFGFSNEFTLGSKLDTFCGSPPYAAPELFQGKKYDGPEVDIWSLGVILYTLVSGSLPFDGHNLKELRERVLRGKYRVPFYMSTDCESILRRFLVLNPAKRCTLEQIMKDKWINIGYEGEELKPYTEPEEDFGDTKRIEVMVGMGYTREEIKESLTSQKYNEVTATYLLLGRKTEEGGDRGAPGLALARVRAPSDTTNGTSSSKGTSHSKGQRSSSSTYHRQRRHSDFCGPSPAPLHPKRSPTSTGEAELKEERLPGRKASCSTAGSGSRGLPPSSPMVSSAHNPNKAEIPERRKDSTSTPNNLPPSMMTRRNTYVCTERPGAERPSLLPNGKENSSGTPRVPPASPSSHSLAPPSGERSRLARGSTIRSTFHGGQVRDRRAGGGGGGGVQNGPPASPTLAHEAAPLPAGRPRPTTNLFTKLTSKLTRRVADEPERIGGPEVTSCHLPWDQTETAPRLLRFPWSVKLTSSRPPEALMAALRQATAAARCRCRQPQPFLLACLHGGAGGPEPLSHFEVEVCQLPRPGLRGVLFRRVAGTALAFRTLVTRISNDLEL
Sequence of HIPK2 (human) (Q9H2X6 whole entry, looked up): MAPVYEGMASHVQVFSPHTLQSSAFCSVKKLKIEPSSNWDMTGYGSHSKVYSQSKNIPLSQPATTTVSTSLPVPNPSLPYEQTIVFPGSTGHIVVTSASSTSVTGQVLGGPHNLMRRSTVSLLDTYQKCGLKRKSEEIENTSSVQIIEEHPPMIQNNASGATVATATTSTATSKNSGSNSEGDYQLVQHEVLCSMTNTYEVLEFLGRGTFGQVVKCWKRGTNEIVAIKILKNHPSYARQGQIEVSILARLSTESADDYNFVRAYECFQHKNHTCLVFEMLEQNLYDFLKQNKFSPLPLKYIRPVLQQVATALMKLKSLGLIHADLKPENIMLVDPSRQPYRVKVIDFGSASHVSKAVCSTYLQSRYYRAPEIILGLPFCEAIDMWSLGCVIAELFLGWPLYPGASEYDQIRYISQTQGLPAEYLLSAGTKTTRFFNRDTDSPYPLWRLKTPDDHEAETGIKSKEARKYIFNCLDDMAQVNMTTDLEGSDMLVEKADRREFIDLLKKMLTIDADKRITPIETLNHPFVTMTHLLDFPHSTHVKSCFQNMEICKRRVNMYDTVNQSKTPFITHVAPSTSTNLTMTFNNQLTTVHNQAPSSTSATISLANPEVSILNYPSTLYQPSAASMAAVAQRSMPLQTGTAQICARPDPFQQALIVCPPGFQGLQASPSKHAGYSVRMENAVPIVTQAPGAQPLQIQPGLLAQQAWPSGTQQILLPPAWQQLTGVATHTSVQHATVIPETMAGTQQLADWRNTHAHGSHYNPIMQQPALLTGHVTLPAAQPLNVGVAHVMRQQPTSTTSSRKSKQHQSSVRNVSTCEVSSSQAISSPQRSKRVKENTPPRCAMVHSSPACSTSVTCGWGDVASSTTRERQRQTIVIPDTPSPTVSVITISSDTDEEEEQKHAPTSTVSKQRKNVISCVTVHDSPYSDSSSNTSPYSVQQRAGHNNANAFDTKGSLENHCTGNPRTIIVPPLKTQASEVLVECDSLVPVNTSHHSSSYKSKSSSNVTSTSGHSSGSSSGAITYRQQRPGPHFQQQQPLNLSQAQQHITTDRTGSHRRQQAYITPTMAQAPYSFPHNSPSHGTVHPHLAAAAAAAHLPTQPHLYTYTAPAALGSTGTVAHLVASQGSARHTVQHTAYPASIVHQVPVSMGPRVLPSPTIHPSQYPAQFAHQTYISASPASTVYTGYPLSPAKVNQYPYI
Sequence of RET (human), P07949 [V804M] (P07949 whole entry V804M, looked up): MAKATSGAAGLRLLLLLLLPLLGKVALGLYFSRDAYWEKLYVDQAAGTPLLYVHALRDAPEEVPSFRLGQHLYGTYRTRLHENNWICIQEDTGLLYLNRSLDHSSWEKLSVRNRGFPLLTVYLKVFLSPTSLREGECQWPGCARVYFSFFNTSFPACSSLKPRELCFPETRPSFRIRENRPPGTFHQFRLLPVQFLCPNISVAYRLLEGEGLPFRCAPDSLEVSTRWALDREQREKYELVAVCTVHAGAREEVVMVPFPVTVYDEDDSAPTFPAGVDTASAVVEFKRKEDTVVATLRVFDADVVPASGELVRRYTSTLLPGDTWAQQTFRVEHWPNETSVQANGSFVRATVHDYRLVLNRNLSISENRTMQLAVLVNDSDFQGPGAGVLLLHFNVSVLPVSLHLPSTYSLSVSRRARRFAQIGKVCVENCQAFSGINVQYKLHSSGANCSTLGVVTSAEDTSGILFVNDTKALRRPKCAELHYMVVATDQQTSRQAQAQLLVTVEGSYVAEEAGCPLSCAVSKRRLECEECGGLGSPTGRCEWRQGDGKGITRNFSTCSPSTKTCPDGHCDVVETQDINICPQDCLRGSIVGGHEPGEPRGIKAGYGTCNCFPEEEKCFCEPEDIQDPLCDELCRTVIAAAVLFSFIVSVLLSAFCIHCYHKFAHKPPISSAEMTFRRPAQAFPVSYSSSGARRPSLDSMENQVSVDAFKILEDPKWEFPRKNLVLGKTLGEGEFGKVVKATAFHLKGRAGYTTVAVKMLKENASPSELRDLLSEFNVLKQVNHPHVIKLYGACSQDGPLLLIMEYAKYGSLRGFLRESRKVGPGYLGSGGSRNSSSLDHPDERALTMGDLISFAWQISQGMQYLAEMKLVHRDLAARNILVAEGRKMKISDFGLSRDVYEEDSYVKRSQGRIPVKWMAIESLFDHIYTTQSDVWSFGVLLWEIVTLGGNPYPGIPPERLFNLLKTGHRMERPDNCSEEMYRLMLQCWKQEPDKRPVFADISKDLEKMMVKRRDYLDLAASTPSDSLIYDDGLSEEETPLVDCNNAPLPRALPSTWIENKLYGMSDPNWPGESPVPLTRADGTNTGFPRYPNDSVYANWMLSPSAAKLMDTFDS
Sequence of NUAK2 (human) (Q9H093 whole entry, looked up): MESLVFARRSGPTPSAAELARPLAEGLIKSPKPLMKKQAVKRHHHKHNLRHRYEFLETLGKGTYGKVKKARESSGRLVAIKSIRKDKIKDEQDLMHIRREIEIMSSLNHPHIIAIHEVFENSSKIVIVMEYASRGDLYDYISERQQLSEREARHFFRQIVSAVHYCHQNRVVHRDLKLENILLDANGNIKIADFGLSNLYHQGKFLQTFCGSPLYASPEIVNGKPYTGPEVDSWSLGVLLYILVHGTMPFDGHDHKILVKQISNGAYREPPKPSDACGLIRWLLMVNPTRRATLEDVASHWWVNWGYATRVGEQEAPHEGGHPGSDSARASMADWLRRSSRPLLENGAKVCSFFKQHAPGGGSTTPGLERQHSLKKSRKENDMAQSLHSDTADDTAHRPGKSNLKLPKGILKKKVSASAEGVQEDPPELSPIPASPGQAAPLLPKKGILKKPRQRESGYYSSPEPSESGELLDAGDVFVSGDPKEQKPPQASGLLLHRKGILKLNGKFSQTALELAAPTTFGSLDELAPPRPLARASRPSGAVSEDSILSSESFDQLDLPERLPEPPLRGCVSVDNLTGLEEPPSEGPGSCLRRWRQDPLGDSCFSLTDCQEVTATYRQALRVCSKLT
Sequence of ADCK3 (human) (Q8NI60 whole entry, looked up): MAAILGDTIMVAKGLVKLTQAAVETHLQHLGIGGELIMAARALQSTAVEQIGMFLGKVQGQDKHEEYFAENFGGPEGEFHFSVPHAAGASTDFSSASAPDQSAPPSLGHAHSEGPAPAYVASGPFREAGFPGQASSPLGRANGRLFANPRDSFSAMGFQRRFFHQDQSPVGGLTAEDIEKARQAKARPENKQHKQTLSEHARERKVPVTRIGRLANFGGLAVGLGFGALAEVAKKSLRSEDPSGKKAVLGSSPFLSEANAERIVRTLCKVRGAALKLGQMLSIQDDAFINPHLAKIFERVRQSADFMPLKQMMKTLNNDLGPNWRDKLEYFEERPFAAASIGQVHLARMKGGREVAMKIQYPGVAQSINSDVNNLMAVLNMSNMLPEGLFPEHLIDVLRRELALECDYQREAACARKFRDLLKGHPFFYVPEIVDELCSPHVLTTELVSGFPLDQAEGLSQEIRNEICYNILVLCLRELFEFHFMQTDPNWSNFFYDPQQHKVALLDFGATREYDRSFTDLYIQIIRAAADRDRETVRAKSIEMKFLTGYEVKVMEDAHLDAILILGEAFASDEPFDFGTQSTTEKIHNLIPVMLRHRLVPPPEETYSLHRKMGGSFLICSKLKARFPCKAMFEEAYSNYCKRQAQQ
Sequence of IKBKE (human) (Q14164 whole entry, looked up): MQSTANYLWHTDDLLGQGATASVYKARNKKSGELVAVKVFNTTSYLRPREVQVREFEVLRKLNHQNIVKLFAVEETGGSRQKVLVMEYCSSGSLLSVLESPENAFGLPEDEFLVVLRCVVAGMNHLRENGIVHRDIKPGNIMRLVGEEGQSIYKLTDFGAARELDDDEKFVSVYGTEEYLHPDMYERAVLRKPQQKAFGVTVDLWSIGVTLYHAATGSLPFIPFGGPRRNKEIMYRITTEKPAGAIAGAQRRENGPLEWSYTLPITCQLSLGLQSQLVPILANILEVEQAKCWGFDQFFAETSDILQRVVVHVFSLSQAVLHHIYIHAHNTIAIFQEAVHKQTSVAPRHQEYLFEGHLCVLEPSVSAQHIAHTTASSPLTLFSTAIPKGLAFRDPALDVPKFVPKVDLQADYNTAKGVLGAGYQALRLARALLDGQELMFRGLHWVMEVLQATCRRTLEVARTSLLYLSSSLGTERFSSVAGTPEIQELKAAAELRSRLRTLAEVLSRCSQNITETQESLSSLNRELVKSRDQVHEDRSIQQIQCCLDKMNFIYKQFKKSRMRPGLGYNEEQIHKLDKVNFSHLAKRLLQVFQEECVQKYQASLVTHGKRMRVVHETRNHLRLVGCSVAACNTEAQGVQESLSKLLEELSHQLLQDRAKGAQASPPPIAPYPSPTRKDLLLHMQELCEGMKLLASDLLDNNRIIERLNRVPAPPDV

Structure (SMILES): Cn1c2ccccc2c2c3c(c4c5ccccc5n(CCC#N)c4c21)CNC3=O
- kinase still bound, per cent of control (ACVRL1 (human)): 100%
- kinase still bound, per cent of control (ADCK3 (human)): 100%
- kinase still bound, per cent of control (AKT2 (human)): 95%
- kinase still bound, per cent of control (BMX (human)): 66%
- kinase still bound, per cent of control (BTK (human)): 83%
- kinase still bound, per cent of control (CASK (human)): 72%
- kinase still bound, per cent of control (CDK13 (human)): 100%
- kinase still bound, per cent of control (CDKL2 (human)): 26%
- kinase still bound, per cent of control (CDKL5 (human)): 10%
- kinase still bound, per cent of control (CRK2 (P.falciparum)): 85%
- kinase still bound, per cent of control (CSK (human)): 100%
- kinase still bound, per cent of control (DCLK1 (human)): 87%
- kinase still bound, per cent of control (DCLK3 (human)): 100%
- kinase still bound, per cent of control [1]: 0%
- kinase still bound, per cent of control (HIPK2 (human)): 15%
- kinase still bound, per cent of control (HIPK4 (human)): 8%
- kinase still bound, per cent of control (IKBKE (human)): 99%
- kinase still bound, per cent of control (ITK (human)): 40%
- kinase still bound, per cent of control [2]: 0%
- kinase still bound, per cent of control (MAP3K15 (human)): 97%
- kinase still bound, per cent of control (MARK4 (human)): 72%
- kinase still bound, per cent of control [3]: 100%
- kinase still bound, per cent of control [4]: 80%
- kinase still bound, per cent of control (MST4 (human)): 100%
- kinase still bound, per cent of control (NEK3 (human)): 100%
- kinase still bound, per cent of control (NUAK2 (human)): 4.4%
- kinase still bound, per cent of control (PAK7 (human)): 3.4%
- kinase still bound, per cent of control (PHKG1 (human)): 0.1%
- kinase still bound, per cent of control (PIM3 (human)): 8.9%
- kinase still bound, per cent of control (PKMYT1 (human)): 100%
- kinase still bound, per cent of control (PLK1 (human)): 100%
- kinase still bound, per cent of control (PRKAA1 (human)): 59%
- kinase still bound, per cent of control (PRKX (human)): 53%
- kinase still bound, per cent of control [5]: 0%
- kinase still bound, per cent of control (ROCK1 (human)): 22%
- kinase still bound, per cent of control (ROCK2 (human)): 18%
- kinase still bound, per cent of control (RPS6KA1 KD2 (human)): 88%
- kinase still bound, per cent of control (RPS6KA3 KD1 (human)): 25%
- kinase still bound, per cent of control (STK3 (human)): 0.8%
- kinase still bound, per cent of control (TIE1 (human)): 100%
- kinase still bound, per cent of control (TTK (human)): 23%
- kinase still bound, per cent of control [6]: 0.6%
